{"source": "paper PMC10298530", "about": "“Synthesis and Anticancer Activity of A-Ring-Modified Derivatives of Dihydrobetulin” (International Journal of Molecular Sciences, 2023)", "key": {"RD TE32": {"test_system": "RD TE32", "assay": "MTT cell viability assay, RD TE32", "type": "cell-based, human", "conditions": "for IC50: Homo sapiens", "text": "Blokhin National Medical Research Center of Oncology (the Ministry of Health of the Russian Federation, Moscow)."}, "HBL-100 cells [1]": {"test_system": "HBL-100 cells", "assay": "Cell cycle analysis (DAPI, flow cytometry), HBL-100", "type": "cell-based, human", "conditions": "for Cell cycle of HBL-100, G0/G1 / Cell cycle of HBL-100, G2/M / Cell cycle of HBL-100, S-phase / Cell cycle of HBL-100, subG0/G1: dose = IC50", "method": "The cells were trypsinized and rinsed with the growth medium. Then, the cells were harvested by centrifugation at 500× g for 3 min, and the supernatant was discarded. The cells were washed with PBS (PanEco, Moscow, Russia) twice and centrifuged under similar conditions. The cells were resuspended in 500 μL of PBS, put into centrifuge tubes and fixed by adding 4.5 mL of 70% ethanol dropwise (on ice). The samples were fixed at 4 °C. Overnight, the fixed cells were centrifugally collected (1000× g, 4 °C, 5 min) and washed again with PBS. The cells were finally resuspended in DAPI with 0.1% Triton X-100 in PBS solution (10 μg/mL, Sigma–Aldrich, St. Louis, MO, USA), and stained for 30 min at room temperature in darkness. For each sample, at least 50,000 cells were analyzed using the CytoFlex S flow cytometer (Beckman Coulter, Brea, CA, USA). Cell cycle populations were quantified from DNA histograms with the FlowJo software (ver. X 10.0.7r2, FlowJo Software, San Jose, CA, USA)."}, "HBL-100 cells [2]": {"test_system": "HBL-100 cells", "assay": "Hoechst 33342 / TMRE fluorescent microscopy, HBL-100", "type": "cell-based, human", "method": "The DNA marker, termed Hoechst 33342 Ready Flow Reagent, was used as a stock solution (Invitrogen, ThermoFisher Scientific, USA). The mitochondrial marker, LumiTracker Mito TMRE (tetramethylrhodamine, ethyl ester; Lumiprobe, Moscow, Russia), was dissolved in DMSO as 1.0 mM stock solution. The marker of reactive oxygen species, H2DCFDA (Lumiprobe, Moscow, Russia), was dissolved in DMSO as 100.0 μM stock solution. After incubation, the cells were incubated with FBS-free culture medium containing the dye mixture of Hoechst 33342 (final concentration 1.0 μM) and LumiTracker Mito TMRE (final concentration 1.0 μM), or H2DCFDA dye taken alone (final concentration 1.0 μM), for 30 min at 37 °C in darkness. Fluorescence, at 420 nm (Hoechst 33342), at 510 nm (TMRE), and at 575 nm (H2DCFDA), of the test cultures (including controls) was analyzed immediately using a fluorescence microscope CKX 53 (Olympus, Tokyo, Japan). The TMRE fluorescence intensity was quantified using Fiji (ImageJ)."}, "HBL-100/Dox cells": {"test_system": "HBL-100/Dox cells", "assay": "Western blotting of cytochrome c, cleaved caspase-9 and -8, HBL-100/Dox", "type": "cell-based, human", "conditions": "16 h, IC50", "method": "The supernatant (cytosol fraction) and mitochondrial pellets were then collected, and protein concentration was determined by UV […] using 1–100 μg/mL BSA as standard curve concentrations (UV-2600i spectrophotometer; Shimadzu, Tokyo, Japan).\nThen, the same protein amounts (20.0 µg in each lane) were loaded and separated by 4–20% Mini-PROTEAN TGX Stain-Free Protein Gels (Bio-Rad Laboratories, Hercules, CA, USA), followed by transferring onto polyvinylidene difluoride (PVDF) membranes. The membranes were blocked with 1% (w/v) casein in Tris-buffered saline containing 0.1% Tween-20 (TBS-T), and were incubated overnight with primary antibodies (1:1000) of Cytochrome c (D18C7) Rabbit mAb, Cleaved Caspase-9 (Asp330) (E5Z7N) Rabbit mAb, Cleaved Caspase-8 (Asp374) (18C8) Rabbit mAb, and β-Actin (D6A8) Rabbit mAb (Cell Signaling Technology, Danvers, MA, USA) for cytosol and mitohondrial fractions at 4 °C. The next day, the PVDF membranes were washed thrice in TBS-T and incubated with HRP-conjugated secondary antibodies (1:1000) (Cell Signaling Technology, Danvers, MA, USA) for 1 h at RT. Immunoreactive proteins were detected by Clarity Western ECL Substrate (Bio-Rad Laboratories, Hercules, CA, USA) and then analyzed on the ChemiDoc MP Imaging system (Bio-Rad Laboratories, Hercules, CA, USA). The proteins were quantified by densitometry using Image Lab software (version 6.0; Bio-Rad Laboratories, Hercules, CA, USA). To normalize protein expression data, a blot with β-Actin was used."}, "[3]": {"test_system": "Active Caspase-3 in HBL-100 cells", "assay": "Flow cytometric analysis of active caspase-3, HBL-100", "type": "cell-based, human", "conditions": "24 h", "method": "The cells were detached with accutase (HiMedia Laboratories, Maharashtra, India) and then fixed with 70% ice cold ethanol followed by overnight incubation at 4 °C. The cells were washed twice with PBS, permeabilized using 0.1% Triton X-100 in PBS solution, and subsequently stained with 5 μL of the BD Horizon™ BV605 Rabbit Anti-Active Caspase-3 antibody (BD Biosciences, Franklin Lakes, NJ, USA). The cells were then washed, resuspended in PBS, and analyzed using a CytoFlex S flow cytometer (Beckman Coulter, Brea, CA, USA). Cell fluorescence was evaluated on a CytoFlex S flow cytometer (Beckman Coulter, Brea, CA, USA). The results were analyzed using FlowJo software (ver. X 10.0.7r2, FlowJo Software, San Jose, CA, USA) and represented as geometric mean fluorescence intensity (gMFI)."}, "human cancer cell lines": {"test_system": "human cancer cell lines", "assay": "MTT assay, panel of cancer cell lines", "conditions": "for IC50: Homo sapiens", "procedure": "In this study, the human embryonic kidney cell line HEK293 was used as the non-cancerous cell line.\nTo investigate the cytotoxic activity of the compounds under study, the MTT colorimetric assay [45] was performed. […] After 72 h, 20 μL of 5 mg/mL solution of MTT (PanEco, Moscow, Russia), in sterile phosphate-buffered saline (PBS; PanEco, Moscow, Russia), was added to each well and further incubated for 4 h. Then, the medium with the compounds was removed, and the formed formazan crystals were dissolved in 100 μL of DMSO. […] The IC50 values were determined from dose-dependent curves, using Prism 6.0 (GraphPad Software, Boston, MA, USA)."}}, "note": "Read-outs that look alike come from different tables or passages of the source.", "data": [{"compound": "COC(=O)[C@]12CC[C@@H](C(C)C)[C@@H]1[C@H]1CC[C@@H]3[C@@](C)(CCC#N)[C@H](C(=O)C(Br)Br)CC[C@@]3(C)[C@]1(C)CC2", "note": "[compound 31, 2-Cyano-24,24-dibromo-4-oxo-3,4-seco-3,23-dinorlupan-28-oic acid methyl ester]", "values": [{"measurement": "IC50", "setting": "RD TE32; RD TE32, MTT, 72 h of treatment, read-out: IC50 Values (Mean ± SD)", "value": "700 ± 100", "unit": "nM"}, {"measurement": "IC50", "setting": "RD TE32; Table S1, RD TE32, read-out: IC50 (mean ± SD)", "value": "660 ± 40", "unit": "nM"}, {"measurement": "Selectivity index (SI)", "setting": "RD TE32; ratio of IC50 values healthy (HEK293) / RD TE32", "value": 16.43}, {"measurement": "Cell cycle of HBL-100, G0/G1", "setting": "HBL-100 cells [1]; 12 h", "value": "59.78±0.94", "unit": "%"}, {"measurement": "Cell cycle of HBL-100, G2/M", "setting": "HBL-100 cells [1]; 12 h", "value": "15.88±0.50", "unit": "%"}, {"measurement": "Cell cycle of HBL-100, S-phase", "setting": "HBL-100 cells [1]; 12 h", "value": "24.35±0.43", "unit": "%"}, {"measurement": "Cell cycle of HBL-100, subG0/G1", "setting": "HBL-100 cells [1]; 12 h", "value": "1.44 ± 0.44", "unit": "%"}, {"measurement": "Cell cycle of HBL-100, G0/G1", "setting": "HBL-100 cells [1]; 13 h", "value": "56.56±0.16", "unit": "%"}, {"measurement": "Cell cycle of HBL-100, G2/M", "setting": "HBL-100 cells [1]; 13 h", "value": "16.70±0.71", "unit": "%"}, {"measurement": "Cell cycle of HBL-100, S-phase", "setting": "HBL-100 cells [1]; 13 h", "value": "26.74±0.54", "unit": "%"}, {"measurement": "Cell cycle of HBL-100, subG0/G1", "setting": "HBL-100 cells [1]; 13 h", "value": "1.74±0.05", "unit": "%"}, {"measurement": "Cell cycle of HBL-100, G0/G1", "setting": "HBL-100 cells [1]; 14 h", "value": "56.69±0.01", "unit": "%"}, {"measurement": "Cell cycle of HBL-100, G2/M", "setting": "HBL-100 cells [1]; 14 h", "value": "16.96±0.16", "unit": "%"}, {"measurement": "Cell cycle of HBL-100, S-phase", "setting": "HBL-100 cells [1]; 14 h", "value": "26.35±0.16", "unit": "%"}, {"measurement": "Cell cycle of HBL-100, subG0/G1", "setting": "HBL-100 cells [1]; 14 h", "value": "1.74±0.18", "unit": "%"}, {"measurement": "Cell cycle of HBL-100, G0/G1", "setting": "HBL-100 cells [1]; 15 h", "value": "57.83±1.04", "unit": "%"}, {"measurement": "Cell cycle of HBL-100, G2/M", "setting": "HBL-100 cells [1]; 15 h", "value": "16.29±0.55", "unit": "%"}, {"measurement": "Cell cycle of HBL-100, S-phase", "setting": "HBL-100 cells [1]; 15 h", "value": "25.88±0.49", "unit": "%"}, {"measurement": "Cell cycle of HBL-100, subG0/G1", "setting": "HBL-100 cells [1]; 15 h", "value": "2.38±0.42", "unit": "%"}, {"measurement": "Cell cycle of HBL-100, G0/G1", "setting": "HBL-100 cells [1]; 16 h", "value": "56.91±0.07", "unit": "%"}, {"measurement": "Cell cycle of HBL-100, G2/M", "setting": "HBL-100 cells [1]; 16 h", "value": "18.83±0.14", "unit": "%"}, {"measurement": "Cell cycle of HBL-100, S-phase", "setting": "HBL-100 cells [1]; 16 h", "value": "24.26±0.08", "unit": "%"}, {"measurement": "Cell cycle of HBL-100, subG0/G1", "setting": "HBL-100 cells [1]; 16 h", "value": "4.89±1.93", "unit": "%"}, {"measurement": "Cell cycle of HBL-100, G0/G1", "setting": "HBL-100 cells [1]; 17 h", "value": "55.78±0.79", "unit": "%"}, {"measurement": "Cell cycle of HBL-100, G2/M", "setting": "HBL-100 cells [1]; 17 h", "value": "18.39±1.04", "unit": "%"}, {"measurement": "Cell cycle of HBL-100, S-phase", "setting": "HBL-100 cells [1]; 17 h", "value": "25.83±0.24", "unit": "%"}, {"measurement": "Cell cycle of HBL-100, subG0/G1", "setting": "HBL-100 cells [1]; 17 h", "value": "3.50±0.42", "unit": "%"}, {"measurement": "Cell cycle of HBL-100, G0/G1", "setting": "HBL-100 cells [1]; 18 h", "value": "56.81±0.03", "unit": "%"}, {"measurement": "Cell cycle of HBL-100, G2/M", "setting": "HBL-100 cells [1]; 18 h", "value": "15.38±0.01", "unit": "%"}, {"measurement": "Cell cycle of HBL-100, S-phase", "setting": "HBL-100 cells [1]; 18 h", "value": "27.81±0.04", "unit": "%"}, {"measurement": "Cell cycle of HBL-100, subG0/G1", "setting": "HBL-100 cells [1]; 18 h", "value": "4.39±0.82", "unit": "%"}, {"measurement": "Cell cycle of HBL-100, G0/G1", "setting": "HBL-100 cells [1]; 24 h", "value": "66.48 ± 1.33", "unit": "%"}, {"measurement": "Cell cycle of HBL-100, G2/M", "setting": "HBL-100 cells [1]; 24 h", "value": "4.43 ± 0.50", "unit": "%"}, {"measurement": "Cell cycle of HBL-100, S-phase", "setting": "HBL-100 cells [1]; 24 h", "value": "29.09±0.89", "unit": "%"}, {"measurement": "Cell cycle of HBL-100, subG0/G1", "setting": "HBL-100 cells [1]; 24 h", "value": "8.22 ± 0.59", "unit": "%"}, {"measurement": "effect on cell cycle progression", "setting": "HBL-100 cells [1]; HBL-100 (parental) cells, 12-24 h, IC50", "value": "blocked or slowed down the cell cycle progression through the G0/G1 phase"}, {"measurement": "mitochondrial membrane potential (MMP), TMRE fluorescence intensity", "setting": "HBL-100 cells [2]; 16 h, vs untreated control", "value": "significant (p < 0.05) reduction in MMP"}, {"measurement": "number of cells with nuclear morphology changes", "setting": "HBL-100 cells [2]; Hoechst 33342, 16 h, IC50 values (MK 1.0 µM)", "value": 21.2, "unit": "%"}, {"measurement": "activation of caspase-8", "setting": "HBL-100/Dox cells", "value": "not observed"}, {"measurement": "activation of caspase-9", "setting": "HBL-100/Dox cells", "value": "sequential activation of initiator caspase-9"}, {"measurement": "cytochrome c release", "setting": "HBL-100/Dox cells", "value": "provoked the release of cytochrome c from mitochondria to cytosol"}, {"measurement": "gMIF, Active Caspase-3", "setting": "[3]; dose 2×IC50", "value": "11048±278"}, {"measurement": "gMIF, Active Caspase-3", "setting": "[3]; dose IC50", "value": "6755±301"}, {"measurement": "IC50", "setting": "human cancer cell lines; read-out: IC50 values (range)", "value": "700 to 7100", "unit": "nM"}, {"measurement": "IC50", "setting": "human cancer cell lines; read-out: cytotoxicity (IC50 range)", "value": "700 to 16600", "unit": "nM"}, {"measurement": "cytotoxicity in the screening studies", "setting": "human cancer cell lines; MTT screening, Table S1", "value": "pronounced cytotoxic effect"}, {"measurement": "SI (range)", "setting": "human cancer cell lines; against HBL-100/Dox, HBL-100, and RD TE32 cells", "value": "6.39–16.43"}]}]}
